Data reported in publication PMC4995014, “Identification of ABC Transporter Interaction of a Novel Cyanoquinoline Radiotracer and Implications for Tumour Imaging by Positron Emission Tomography” (PLoS ONE, 2016).

What was measured:
[1] = biological target: T1, EGFR Del E746-A750/T790M (PC9ER cells) (Homo sapiens, UniProt P00533, DEL746-750/T790M); test: Inhibition of EGFR autophosphorylation (p-EGFR Y1068, western blot) in PC9ER cells; assay type: cell-based
T1 construct: endogenous in cells; host or cells: PC9ER (Dr Olivier Pardo, Imperial College London)
T1 sequence (P00533 with tags, fused parts or gaps DEL746-750/T790M): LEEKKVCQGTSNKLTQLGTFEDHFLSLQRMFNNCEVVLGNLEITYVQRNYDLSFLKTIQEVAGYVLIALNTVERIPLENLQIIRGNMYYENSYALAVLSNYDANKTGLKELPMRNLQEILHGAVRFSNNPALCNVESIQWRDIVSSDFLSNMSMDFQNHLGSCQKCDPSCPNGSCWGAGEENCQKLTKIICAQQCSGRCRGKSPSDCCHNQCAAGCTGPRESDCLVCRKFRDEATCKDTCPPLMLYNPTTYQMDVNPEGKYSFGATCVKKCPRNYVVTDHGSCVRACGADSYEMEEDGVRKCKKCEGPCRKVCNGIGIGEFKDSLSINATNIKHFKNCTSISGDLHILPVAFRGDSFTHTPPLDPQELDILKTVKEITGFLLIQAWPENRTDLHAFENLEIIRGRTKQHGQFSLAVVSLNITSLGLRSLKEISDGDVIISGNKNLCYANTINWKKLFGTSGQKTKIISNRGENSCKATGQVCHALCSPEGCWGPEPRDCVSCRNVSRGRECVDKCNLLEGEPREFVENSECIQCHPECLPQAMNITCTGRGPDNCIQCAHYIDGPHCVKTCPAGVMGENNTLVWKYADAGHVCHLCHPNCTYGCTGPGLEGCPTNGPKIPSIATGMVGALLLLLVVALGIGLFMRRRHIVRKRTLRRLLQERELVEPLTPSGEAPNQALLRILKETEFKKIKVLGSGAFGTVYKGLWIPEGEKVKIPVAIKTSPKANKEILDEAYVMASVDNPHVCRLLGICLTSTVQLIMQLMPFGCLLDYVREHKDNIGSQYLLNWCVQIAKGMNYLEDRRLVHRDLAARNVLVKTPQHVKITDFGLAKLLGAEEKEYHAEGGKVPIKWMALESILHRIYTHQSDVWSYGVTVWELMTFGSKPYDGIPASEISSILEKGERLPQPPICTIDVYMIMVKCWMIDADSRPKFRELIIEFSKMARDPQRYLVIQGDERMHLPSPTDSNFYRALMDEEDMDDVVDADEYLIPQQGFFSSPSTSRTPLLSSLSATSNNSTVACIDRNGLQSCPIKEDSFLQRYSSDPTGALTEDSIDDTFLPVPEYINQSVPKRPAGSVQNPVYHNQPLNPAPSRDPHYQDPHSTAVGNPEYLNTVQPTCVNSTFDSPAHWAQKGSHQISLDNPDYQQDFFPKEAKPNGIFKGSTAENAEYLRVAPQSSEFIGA
Procedure: (§1) Affinity of the cyanoquinolines for EGFR was established by measuring their inhibition of EGFR autophosphorylation via western blot. Cells were seeded in 6 well plates and following 24 h of growth, were subject to overnight serum starvation. The cells were then treated with increasing concentrations of cyanoquinolines prepared in serum free growth media from a DMSO stock (final DMSO concentration < 1%) for 3 h at 37°C, and stimulated for receptor autophosphorylation by addition of 100 ng/mL of EGF during the last 15 minutes of drug incubation. After 3 h the cells were placed on ice, media removed and then the cells were washed two times with ice cold phosphate buffered saline (PBS). Lysates were analysed by western blot to measure changes to p-EGFR Y1068.
(§2) Cells were collected into a microcentrifuge tube and sonicated for 30 seconds on ice. Cellular protein levels were assessed using a bicinchoninic acid (BCA) protein assay kit according to the manufacturer’s instructions (Thermo scientific). […] Samples were transferred to polyvinylidene difluoride (PVDF) membrane using Trans-Blot Turbo system BIO-RAD (Hercules, California, USA). […] The membranes were then incubated overnight with primary antibody prepared in 1% milk or 1% BSA in TBST. […] Membranes were washed a further three times for 10 minutes with TBST. Blots were visualised using chemoluminescence (ECL, GE Healthcare, Little Chalfont, UK) and developed on Amersham Hyperfilm ECL (GE Healthcare). β-Actin was used as a loading control.

[2] = tested on: 3T3-MDR1 cells; test: SRB cell viability assay in 3T3-MDR1 cells (ABCB1 expressing); assay type: cell-based; conditions: GI50 3T3-MDR1 over GI50 3T3, without zosuquidar
Procedure: (§3) Cell viability by the sulforhodamine B (SRB) assay was used to assess cell growth and cytotoxicity of test compounds [29]. Cells were seeded at densities of 3,500 to 5,000 cells per well in 96 well plates overnight and pre-treated for 1 h with ABC transporter modulators: 10 μM fumitremorgin C (FTC; in MCF7MX and MCF7 cells), or 0.3 μM of zosuquidar (in 3T3 and 3T3-MDR1). Cells were then treated with test compounds for 72 h, at 37°C. After drug treatment, cells were fixed by addition of 50% trichloroacetic acid (TCA), and the plates washed and dried to allow staining with 0.4% solution of sulforhodamine B (Sigma) in 1% acetic acid for 30 minutes. Excess dye was removed upon washing with 1% acetic acid. Plates were dried and bound protein was solubilised upon addition of 150 μL of 10 mM Tris base buffer. Absorbance was measured at 540 nm using Thermo Multiskan-Ex plate reader. Cell viability versus compound concentration curves were plotted as a percentage of control cells. The concentration of drug that gave 50% inhibition in cell growth (GI50) was extrapolated from these curves using the sigmoid curve fit with variable slope in Prism (GraphPad Prism version 5.01, GraphPad Software, San Diego California USA). Three to six replicate wells were used for each drug concentration and experiments were carried out on three separate occasions for each compound.

[3] = tested on: ABCB1 (MDR1); test: as above; assay type: cell-based; conditions: mouse, 3T3-MDR1 cells (ABCB1 expressing), 72 h, SRB
Procedure: as §3

[4] = tested on: MCF7MX cells; test: SRB cell viability assay in MCF7MX cells (ABCG2 overexpressing); assay type: cell-based, human; conditions: for GI50: Homo sapiens, MCF7/MX, 72 h, SRB
Procedure: as §3

[5] = biological target: T2, EGFR L858R/T790M (H1975 cells) (Homo sapiens, UniProt P00533, L858R/T790M); test: Inhibition of EGFR autophosphorylation (p-EGFR Y1068, western blot) in H1975 cells; assay type: cell-based; conditions: 3 h incubation, EGF stimulated
T2 construct: host or cells: H1975
T2 sequence (P00533 25-1210 T790M/L858R): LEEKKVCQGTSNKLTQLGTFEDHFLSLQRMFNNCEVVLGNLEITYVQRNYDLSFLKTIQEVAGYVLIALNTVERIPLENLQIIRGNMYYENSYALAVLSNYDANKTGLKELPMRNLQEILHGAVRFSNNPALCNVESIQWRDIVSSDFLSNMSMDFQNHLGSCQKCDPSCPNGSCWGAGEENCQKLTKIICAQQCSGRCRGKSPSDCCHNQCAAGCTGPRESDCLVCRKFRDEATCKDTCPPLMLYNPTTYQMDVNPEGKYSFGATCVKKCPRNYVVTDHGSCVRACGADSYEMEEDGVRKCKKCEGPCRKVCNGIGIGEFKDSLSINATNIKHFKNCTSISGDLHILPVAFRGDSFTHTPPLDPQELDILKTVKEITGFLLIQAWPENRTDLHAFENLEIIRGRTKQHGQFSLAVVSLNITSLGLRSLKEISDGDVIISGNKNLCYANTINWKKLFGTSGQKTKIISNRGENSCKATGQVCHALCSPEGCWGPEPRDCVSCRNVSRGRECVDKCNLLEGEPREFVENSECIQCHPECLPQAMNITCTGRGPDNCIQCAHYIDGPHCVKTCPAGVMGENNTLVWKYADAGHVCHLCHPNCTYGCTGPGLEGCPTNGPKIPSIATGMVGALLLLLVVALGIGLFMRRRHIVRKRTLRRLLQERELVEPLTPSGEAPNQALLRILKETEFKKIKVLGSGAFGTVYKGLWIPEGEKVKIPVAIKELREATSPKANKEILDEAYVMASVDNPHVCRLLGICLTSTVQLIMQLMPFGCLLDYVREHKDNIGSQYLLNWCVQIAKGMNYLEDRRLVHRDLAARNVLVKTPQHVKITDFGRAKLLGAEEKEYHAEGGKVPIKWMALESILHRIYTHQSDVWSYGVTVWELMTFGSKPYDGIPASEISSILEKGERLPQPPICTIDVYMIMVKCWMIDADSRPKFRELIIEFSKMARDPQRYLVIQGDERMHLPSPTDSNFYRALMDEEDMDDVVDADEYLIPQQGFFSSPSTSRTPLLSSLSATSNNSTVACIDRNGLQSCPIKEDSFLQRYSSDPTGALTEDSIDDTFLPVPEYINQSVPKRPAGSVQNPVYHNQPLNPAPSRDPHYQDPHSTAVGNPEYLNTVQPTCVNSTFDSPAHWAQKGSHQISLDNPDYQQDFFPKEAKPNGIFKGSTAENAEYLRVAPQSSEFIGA
Procedure: as §1
as §2, with “Blots were visualised using chemoluminescence (ECL, GE Healthcare, Little Chalfont, UK) and developed on Amersham Hyperfilm ECL (GE Healthcare). β-Actin was used as a loading control.” left out

[6] = tested on: MCF7 cells; test: SRB cell viability assay in MCF7 cells; assay type: cell-based; conditions: Homo sapiens, 72 h
Procedure: as §3

[7] = biological target: T3, wildtype EGFR (Homo sapiens, UniProt P00533); test: Inhibition of EGFR autophosphorylation in wildtype EGFR expressing A549 and H358 cells; assay type: cell-based; conditions: read-out: IC50 p-EGFR Y1068 in wildtype EGFR expressing cells
T3 construct: host or cells: H358; A549
T3 sequence (P00533 25-1210): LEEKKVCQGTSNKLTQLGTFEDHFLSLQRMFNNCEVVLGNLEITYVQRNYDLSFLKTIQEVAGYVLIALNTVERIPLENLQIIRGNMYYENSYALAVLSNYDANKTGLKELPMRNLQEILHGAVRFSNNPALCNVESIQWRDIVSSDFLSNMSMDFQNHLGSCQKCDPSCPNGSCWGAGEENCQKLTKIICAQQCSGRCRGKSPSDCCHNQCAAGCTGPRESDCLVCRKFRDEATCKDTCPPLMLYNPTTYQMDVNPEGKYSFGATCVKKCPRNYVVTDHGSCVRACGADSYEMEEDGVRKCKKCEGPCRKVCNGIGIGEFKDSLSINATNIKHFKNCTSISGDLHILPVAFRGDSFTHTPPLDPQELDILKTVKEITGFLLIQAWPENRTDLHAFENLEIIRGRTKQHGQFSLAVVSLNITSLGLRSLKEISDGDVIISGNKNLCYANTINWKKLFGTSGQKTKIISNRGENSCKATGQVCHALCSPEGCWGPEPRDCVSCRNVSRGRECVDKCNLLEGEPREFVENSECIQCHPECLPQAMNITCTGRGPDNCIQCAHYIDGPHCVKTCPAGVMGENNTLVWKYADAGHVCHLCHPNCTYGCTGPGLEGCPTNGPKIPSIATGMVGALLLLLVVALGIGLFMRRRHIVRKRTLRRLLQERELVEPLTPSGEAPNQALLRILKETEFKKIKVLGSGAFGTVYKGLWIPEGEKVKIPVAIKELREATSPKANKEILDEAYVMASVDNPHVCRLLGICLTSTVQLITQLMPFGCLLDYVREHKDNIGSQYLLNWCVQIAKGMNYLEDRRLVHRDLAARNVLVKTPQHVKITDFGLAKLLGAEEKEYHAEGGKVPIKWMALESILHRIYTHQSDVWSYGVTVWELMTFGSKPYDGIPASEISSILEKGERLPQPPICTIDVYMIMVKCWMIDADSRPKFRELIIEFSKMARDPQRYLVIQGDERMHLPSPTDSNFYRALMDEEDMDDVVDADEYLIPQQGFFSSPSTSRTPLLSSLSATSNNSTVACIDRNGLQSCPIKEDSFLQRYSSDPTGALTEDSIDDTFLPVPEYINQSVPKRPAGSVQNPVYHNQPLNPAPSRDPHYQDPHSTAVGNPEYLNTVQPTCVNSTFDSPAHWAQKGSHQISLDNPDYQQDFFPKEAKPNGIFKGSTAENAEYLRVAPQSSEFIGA
Procedure: as §1
Cell lysates were prepared by addition of radioimmunoprecipitation assay (RIPA) buffer (50mM Tris-HCl pH 7.2, 150mM NaCl, 1% NP40, 1% sodium deoxycholate, 0.1% sodium dodecyl sulfate) supplemented with 1 x protease and phosphatase inhibitor cocktail (1mM 4-(2-Aminoethyl)benzenesulfonylfluoride hydrochloride, 800 nM aprotinin, 50 μM bestatin, 15 μM E-64, 5μM EDTA, 20 μM leupeptin, 10 μM pepstatin A; Thermo scientific, Waltham, Massachusetts, USA). […] Cellular protein levels were assessed using a bicinchoninic acid (BCA) protein assay kit according to the manufacturer’s instructions (Thermo scientific). […]

[8] = 1 h pre-treatment with 10 μM FTC

- IC50 ([1]; 3 h incubation, EGF stimulated): 0.045 µM
- fold higher IC50 (p-EGFR) in PC9ER compared to PC9 ([1]; PC9ER versus isogenic PC9): 2 fold
- fold increase in GI50 in the ABCG2 overexpressing cell line ([4]; GI50 MCF7MX over GI50 MCF7, without FTC): 6.3 fold
- GI50 [4, 8]: 37.9 ± 21.9 µM
- GI50 ([4]; without FTC): 75.9 ± 43.8 µM
- IC50 [5]: > 1 µM
- GI50 [6, 8]: 12.3 ± 7.1 µM
- GI50 ([6]; without FTC): 12 ± 6.93 µM
- IC50 [7]: 0.6 to 0.7 µM
SMILES: CCOc1cc2ncc(C#N)c(Nc3ccc(F)c(Cl)c3)c2cc1NC(=O)/C=C/CNCc1cn(CCF)nn1 [FED6, (2E)-N-{4-[(3-chloro-4-fluorophenyl)amino]-3-cyano-7-ethoxyquinolin-6-yl}-4-({[1-(2-fluoroethyl)-1H-1,2,3-triazol-4-yl]methyl}amino)-but-2-enamide]
- fold increase in GI50 in the ABCB1 overexpressing cell line [2]: > 10 fold
- GI50 at 72 h ([3]; with zosuquidar 0.3 μM (1 h pre-treatment), pre-treatment with 0.3 μM zosuquidar): 13.6 ± 0.6 µM
- GI50 at 72 h ([3]; without zosuquidar): > 100 µM
